Reference: US11352352B2, “Aminopyrimidine compound, preparation method therefor and use thereof” (BEIJING ADAMADLE BIOTECHNOLOGY LIMITED LIABILITY COMPANY, priority 2017, dated 2022)

Tests used:
Assay in all cases: Cell proliferation inhibition experiment, CellTiter-Glo (CTG) method
Format in all cases: cell-based
A-431 = A-431 cells, 3 days
Description: (§1) Cell Proliferation Inhibition Experiment
(§2) Compounds were tested in the selected cell lines, and solvent is set as control, nine concentrations were detected with three parallel wells for each concentration.
(§3) 2. Reagents and Materials • 1) fetal bovine serum FBS (GIBCO, Cat #10099-141) • 2) CellTiter-Glo® Luminescent Cell Viability Assay (Promega, Cat #G7572) • 3) 96-well plate with flat clear bottom, black wall plates (Corning®, Cat #3340)
(§4) The first day: Incubation and plant of cells • 1) Cells in logarithmic growth phase were harvested and counted by cell counter. Cell viability was detected by trypan blue exclusion assay to ensure that the viability of each cell line was above 90%. • 2) Cell concentration was adjusted by diluting complete culture medium, and 90 μL cell suspension was added to a 96-well plate (T0 plate and drug plate to be tested) to make the cell density reach the specified concentration. • 3) Cells in 96-well plate were incubated overnight at condition of 37° C., 5% CO2 and 95% humidity.
(§5) The second day: Reading T0 plate • 1) 10 μL culture medium was added to T0 plate. • 2) CTG reagent was melt, while the cell plate was balanced to room temperature for 30 minutes. • 3) The same volume of CTG solution was added to each well. • 4) The cell plate was vibrated for 2 minutes on an orbital shaker to lyze the cells. • 5) The cell plate was placed at room temperature for 10 minutes to stabilize the cold light signal. • 6) The cold light value was read with EnVision.
Drug Addition • 1) Drug dilution. The compounds to be tested were dissolved and packaged, then a gradient elution was performed to obtain a solution diluted 10 times. • 2) Drug addition. […] drug solution was added into each well of the 96-well plate, which was inoculated cells, three parallel wells were set for each cell concentration. The highest concentration of the compounds to be tested on A-431 was 30 μM, nine concentrations was set with 3 times dilution; while the highest concentration on NCI-H1975 and PC-9 was 1.111 μM, 9 concentrations was set with 3 times dilution. • 3) Culture. Cells in 96-well plates in which drugs have been added were cultured at condition of 37° C., 5% CO2 and 95% humidity for 3 days, and then CTG assay was performed respectively.
(§6) The third day: reading plate at the terminal • 1) CTG reagent was melt, while the cell plate was balanced to room temperature for 30 minutes. • 2) The same volume of CTG solution was added to each well. • 3) The cell plate was vibrated for 2 minutes on an orbital shaker to lyze the cells. • 4) The cell plate was placed at room temperature for 10 minutes to stabilize the cold light signal. • 5) The cold light value was read with EnVision
(§7) Data were analyzed using GraphPad Prism 5.0 software, and non-linear S curve regression was used for fitting the data to give a dose-effect curve, IC50 value was calculated accordingly. Cell Survival Rate (%)=(Lumdrugs−Lumcontrol)/(Lumcell−Lumcontrol)×100%.

PC-9 = PC-9 cells, 3 days
Description: as §1, §2, §3, §4, §5
(§8) Drug Addition • 1) Drug dilution. The compounds to be tested were dissolved and packaged, then a gradient elution was performed to obtain a solution diluted 10 times. • 2) Drug addition. […] drug solution was added into each well of the 96-well plate, which was inoculated cells, three parallel wells were set for each cell concentration.
as §6, §7

NCI-H1975 = details: for IC50: Homo sapiens, NCI-H1975, 72 h, NCI-H1975 cells, CTG, 3 days; for A-431/NCI-H1975 Selectivity: ratio of A-431 IC50 to NCI-H1975 IC50
Description: as §1, §2, §3, §4, §5, §8, §6, §7

| Compound | IC50 (A-431; Homo sapiens, A-431, 72 h) | IC50 (PC-9; Homo sapiens, PC-9, 72 h) | IC50 (NCI-H1975) | A-431/NCI-H1975 Selectivity (NCI-H1975) | IC50 (A-431) | IC50 (PC-9) |
| --- | --- | --- | --- | --- | --- | --- |
| C=CC(=O)Nc1cc(Nc2cc(-c3ccc4ncsc4c3)ncn2)c(OC)cc1N1CCN(C)CC1 [compound 9] | 767 nM | 36.2 nM | 52.6 nM | 14.6 | – | – |
| C=CC(=O)Nc1cc(Nc2nccc(-c3ccc4c(cnn4C)c3)n2)c(OC)cc1N1CCC(N2C[C@@H](C)N(C)[C@@H](C)C2)CC1 [compound 233] | 2440 nM | 54.9 nM | 71.4 nM | 34.1 | – | – |
| C=CC(=O)Nc1cc(Nc2nccc(-c3ccc4c(cnn4C)c3)n2)c(OC(F)F)cc1N(C)CCN(C)C [compound 260] | 1320 nM | 20.1 nM | 12.8 nM | 103.5 | – | – |
| C=CC(=O)Nc1cc(Nc2nccc(-c3ccc4cnn(C)c4c3)n2)c(OC)cc1N(C)CCN(C)C [compound 16] | 1550 nM | 40.5 nM | 57 nM | 27.1 | – | – |
| C=CC(=O)Nc1cc(Nc2cc(-c3ccc4c(cnn4C)c3)ncn2)c(OC)cc1N1CCC(N2CCOCC2)CC1 [compound 152] | – | – | 23.6 nM | 83.3 | 1970 nM | 43.2 nM |
| C=CC(=O)Nc1cc(Nc2cc(-c3ccc4c(cnn4C)c3)ncn2)c(OC)cc1N(C)CCO [compound 269] | 1570 nM | 16.3 nM | 21.6 nM | 72.9 | – | – |
| C=CC(=O)Nc1cc(Nc2cc(-c3ccc4c(cnn4C)c3)ncn2)c(OC)cc1N(C)C1CCN(C)CC1 [compound 35] | 1590 nM | 16.4 nM | 13.2 nM | – | – | – |
| C=CC(=O)Nc1c(N(C)CCN(C)C)cc(OC)c(Nc2nccc(-c3ccc4c(cnn4C)c3)n2)c1F [compound 261] | 2100 nM | 40.8 nM | 37 nM | 56.8 | – | – |
| C=CC(=O)Nc1cc(Nc2cc(-c3ccc4c(cnn4C)c3)ncn2)c(OC)cc1N1CCC(N2CCN(C(C)C)CC2)CC1 [compound 101] | 633 nM | 19.5 nM | 7.3 nM | – | – | – |
| C=CC(=O)Nc1cc(Nc2cc(-c3ccc4c(cnn4C(C)C)c3)ncn2)c(OC)cc1N(C)CCN(C)C [compound 15] | 1290 nM | 12.7 nM | 21.6 nM | 59.7 | – | – |
| C=CC(=O)Nc1cc(Nc2cc(-c3ccc4cnn(C)c4c3)ncn2)c(OC)cc1N(C)C1CCCN(C)C1 (centres unmarked) [compound 73] | 1030 nM | 50.4 nM | 65.3 nM | 15.7 | – | – |
| C=CC(=O)Nc1cc(Nc2nccc(-c3ccc4c(cnn4C)c3)n2)c(OC(F)F)cc1N(C)CCN(C)CC [compound 259] | 1530 nM | 19.9 nM | 14.9 nM | 102.6 | – | – |
| C=CC(=O)Nc1cc(Nc2cc(-c3ccc4c(cnn4C)c3)ncn2)c(OC)cc1N(C)CCN(C)C(C)=O [compound 76] | 9450 nM | 57.9 nM | 87.3 nM | 108.3 | – | – |
| C=CC(=O)Nc1cc(Nc2cc(-c3ccc4c(c3)ncn4C)ncn2)c(OC)cc1OCCN1CCN(C)CC1 [compound 132] | 2040 nM | 118 nM | 42.3 nM | 48.3 | – | – |
| C=CC(=O)Nc1cc(Nc2cc(-c3ccc4c(cnn4C)c3)ncn2)c(OCC)cc1N(C)CCNC(C)C [compound 271] | 2390 nM | 77.7 nM | 25.2 nM | 94.9 | – | – |
| C=CC(=O)Nc1cc(Nc2cc(-c3ccc4cnn(C)c4c3)ncn2)c(OC)cc1N1CCN(C2CCN(C)CC2)CC1 [compound 184] | 1060 nM | 32.6 nM | 49.5 nM | 21.3 | – | – |
| C=CC(=O)Nc1cc(Nc2cc(-c3ccc4cnn(C)c4c3)ncn2)c(OC)cc1N1CCC(N2CCN(C3COC3)CC2)CC1 [compound 211] | 1040 nM | 7.4 nM | 11.3 nM | – | – | – |
